Measured values taken from ChEMBL document CHEMBL5634090, “Design of phenothiazine-based cationic amphiphilic derivatives incorporating arginine residues: Potential membrane-active broad-spectrum antimicrobials combating pathogenic bacteria in vitro and in vivo” (Eur J Med Chem, 2023).
In brackets after ≈: the same amount, converted by molar mass. Several values for one entry are separate records, joined by “and”; a condition that tells them apart may be missing. Equal values may be shown once. Activity calls are given as the source filed them. The rule behind the calls is not given here.

How the values were obtained:
Staphylococcus aureus [1] = assay: Inhibition of biofilm formation in Staphylococcus aureus ATCC 29213 at 0.39 ug/ml by crystal violet staining assay relative to control; type: functional
Staphylococcus aureus [2] = assay: Antibacterial activity against Staphylococcus aureus ATCC 29213 in presence of 20 umol/L Fe2+ by broth microdilution method; type: functional
[3] = Selectivity index, ratio of CC50 for cytotoxicity against HEK293 cells to MIC for antibacterial activity against Escherichia coli ATCC 25922; type: toxicity, cell-based; settings: human, read-out: Selectivity Index
Klebsiella pneumoniae [4] = assay: Antibiofilm activity against 24 hrs preformed biofilm in Klebsiella pneumoniae ATCC 10031 assessed as reduction in biofilm viability at 12.5 ug/ml relative to control; type: functional; settings: dose 12.5 µg/ml
Klebsiella pneumoniae [5] = assay: Antibacterial activity against Klebsiella pneumoniae ATCC 14581 by microbroth dilution assay; type: functional
Escherichia coli [6] = assay: Antibacterial activity against Escherichia coli ATCC 25922 in presence of 1 mmol/L Mg2+ by broth microdilution method; type: functional
Staphylococcus aureus [7] = assay: Inhibition of biofilm formation in Staphylococcus aureus ATCC 29213 at 0.78 ug/ml by crystal violet staining assay relative to control; type: functional
[8] = Cytotoxicity against mouse NCTC clone 929 cells assessed as cell survival rate at 3.125 ug/ml by CCK-8 assay relative to control; type: toxicity, cell-based; settings: NCTC clone 929 (L929) cells, at 3.125 µg/mL, read-out: Activity
Staphylococcus aureus [9] = assay: Antibacterial activity against methicillin resistant Staphylococcus aureus NCTC 10442 in presence of 4.5 mmol/L K+ by broth microdilution method; type: functional
Pseudomonas aeruginosa [10] = assay: Antibacterial activity against Pseudomonas aeruginosa ATCC 9027 in presence of 140 mmol/L Na+ by broth microdilution method; type: functional
Klebsiella pneumoniae [11] = assay: Inhibition of biofilm formation in Klebsiella pneumoniae ATCC 10031 at 25 ug/ml by crystal violet staining assay relative to control; type: functional
Staphylococcus aureus [12] = assay: Antibiofilm activity against 24 hrs preformed biofilm in Staphylococcus aureus ATCC 29213 assessed as reduction in biofilm viability at […] ug/ml relative to control; type: functional; settings: dose […] microg/ml; 1.56 ug/mL
Klebsiella pneumoniae [13] = assay: Antibacterial activity against Klebsiella pneumoniae ATCC 14581 in presence of 20 umol/L Fe3+ by broth microdilution method; type: functional
Staphylococcus aureus [14] = assay: Antibacterial activity against methicillin resistant Staphylococcus aureus NCTC 10442 in presence of 2.5 mmol/L Ca2+ by broth microdilution method; type: functional
Klebsiella pneumoniae [15] = assay: Antibacterial activity against Klebsiella pneumoniae ATCC 10031 in presence of 1 mmol/L Mg2+ by broth microdilution method; type: functional
[16] = Selectivity index, ratio of CC50 for cytotoxicity against HEK293 cells to MIC for antibacterial activity against Klebsiella pneumoniae ATCC 14581; type: toxicity, cell-based; settings: human, read-out: Selectivity Index
Staphylococcus aureus [17] = assay: Antibacterial activity against methicillin resistant Staphylococcus aureus NCTC 10442 in presence of 1 mmol/L Mg2+ by broth microdilution method; type: functional
Staphylococcus aureus [18] = assay: Antibacterial activity against methicillin resistant Staphylococcus aureus NCTC 10442 in presence of 20 umol/L Fe2+ by broth microdilution method; type: functional
Pseudomonas aeruginosa [19] = assay: Antibacterial activity against Pseudomonas aeruginosa ATCC 9027 by microbroth dilution assay; type: functional
Staphylococcus aureus [20] = assay: Inhibition of biofilm formation in Staphylococcus aureus ATCC 29213 by crystal violet staining assay; type: functional, organism-based; settings: dose 0.39-12.5 µg/ml
Pseudomonas aeruginosa [21] = assay: Antibacterial activity against Pseudomonas aeruginosa ATCC 9027 in presence of 4.50 mmol/L K+ by broth microdilution method; type: functional
[22] = Selectivity index, ratio of CC50 for cytotoxicity against mouse NCTC clone 929 cells to MIC for antibacterial activity against Escherichia coli ATCC 25922; type: toxicity, cell-based; settings: read-out: Selectivity Index
[23] = Cytotoxicity against mouse NCTC clone 929 cells by CCK-8 assay; type: toxicity, cell-based; settings: NCTC clone 929 (L929) cells
Klebsiella pneumoniae [24] = assay: Antibacterial activity against Klebsiella pneumoniae ATCC 14581 in presence of 4.5 mmol/L K+ by broth microdilution method; type: functional
Klebsiella pneumoniae [25] = assay: Antibacterial activity against Klebsiella pneumoniae ATCC 10031 assessed as reduction in bacterial load at 8 times MIC measured after 2 hrs by time kill assay relative to control; type: functional; set-up: scale not given: the % may be the effect or the level left
[26] = Cytotoxicity against mouse NCTC clone 929 cells assessed as cell survival rate at 6.25 ug/ml by CCK-8 assay relative to control; type: toxicity, cell-based; settings: NCTC clone 929 (L929) cells, at 6.25 µg/mL, read-out: Activity
Staphylococcus aureus [27] = assay: Induction of resistance development in Staphylococcus aureus ATCC 29213 assessed as fold increase in MIC treated over 20 serial passages by microdilution assay; type: functional
Klebsiella pneumoniae [28] = assay: Inhibition of biofilm formation in Klebsiella pneumoniae ATCC 10031 at 12.5 ug/ml by crystal violet staining assay relative to control; type: functional
[29] = Cytotoxicity against HEK293 cells assessed as cell survival rate at 6.25 ug/ml by CCK-8 assay relative to control; type: toxicity, cell-based; settings: human, at 6.25 µg/mL, read-out: Activity
Klebsiella pneumoniae [30] = assay: Inhibition of biofilm formation in Klebsiella pneumoniae ATCC 10031 at 0.78 ug/ml by crystal violet staining assay relative to control; type: functional
Pseudomonas aeruginosa [31] = assay: Antibacterial activity against Pseudomonas aeruginosa ATCC 9027 in presence of 19 umol/L Fe2+ by broth microdilution method; type: functional
[32] = Cytotoxicity against HEK293 cells by CCK-8 assay; type: toxicity, cell-based; settings: human
Klebsiella pneumoniae [33] = assay: Antibiofilm activity against 24 hrs preformed biofilm in Klebsiella pneumoniae ATCC 10031 assessed as reduction in biofilm viability at 6.25 ug/ml relative to control; type: functional; settings: dose 6.25 µg/ml
Pseudomonas aeruginosa [34] = assay: Antibacterial activity against Pseudomonas aeruginosa ATCC 9027 infected in cyclophosphamide immunosuppressed keratitis mouse model assessed as log reduction in number of viable bacterial colonies at 10 mg/ml administrated tropically; type: functional
Escherichia coli [35] = assay: Antibacterial activity against Escherichia coli ATCC 25922 in presence of 2.5 mmol/L Ca2+ by broth microdilution method; type: functional
Klebsiella pneumoniae [36] = assay: Inhibition of biofilm formation in Klebsiella pneumoniae ATCC 10031 by crystal violet staining assay; type: functional, organism-based; settings: dose 0.78-25 µg/ml
[37] = Selectivity index, ratio of CC50 for cytotoxicity against mouse NCTC clone 929 cells to MIC for antibacterial activity against Pseudomonas aeruginosa ATCC 9027; type: toxicity, cell-based; settings: read-out: Selectivity Index
Escherichia coli [38] = assay: Antibacterial activity against Escherichia coli ATCC 25922 by microbroth dilution assay; type: functional
[39] = Selectivity index, ratio of CC50 for cytotoxicity against HEK293 cells to MIC for antibacterial activity against methicillin resistant Staphylococcus aureus N315; type: toxicity, cell-based; settings: human, read-out: Selectivity Index
Staphylococcus aureus [40] = assay: Antibacterial activity against Staphylococcus aureus ATCC 29213 assessed as loss in cell viability at 8 times MIC incubated for 4 hrs by LIVE/DEAD BacLight bacterial viability assay; type: functional, organism-based; settings: Cell membrane
Staphylococcus aureus [41] = assay: Antibiofilm activity against 24 hrs preformed biofilm in Staphylococcus aureus ATCC 29213 assessed as reduction in biofilm viability at 12.5 ug/ml relative to control; type: functional; settings: dose 12.5 µg/ml
Staphylococcus aureus [42] = assay: Antibacterial activity against Staphylococcus aureus ATCC 29213 assessed as cell membrane disruption by SYTOX Green assay; type: functional, organism-based

CCCCCCCN1c2ccccc2Sc2ccc(OCC(=O)N[C@@H](CCCNC(=N)N)C(=O)N[C@@H](CCCNC(=N)N)C(N)=O)cc21
inhibition at 0.39 µg/mL (Staphylococcus aureus [1]): 5.85%
MIC (Staphylococcus aureus [2]): 1.56 µg/mL
selectivity ratio [3]: 8
Activity (Klebsiella pneumoniae [4]): 5.88%
MIC (Klebsiella pneumoniae [5]): 3.12 µg/mL (≈ 4.58 µM)
MIC (Escherichia coli [6]): 3.12 µg/mL
inhibition at 0.78 µg/mL (Staphylococcus aureus [7]): 45%
viability at 3.125 ug/ml [8]: 97.9%
MIC (Staphylococcus aureus [9]): 1.56 µg/mL
MIC (Pseudomonas aeruginosa [10]): 6.25 µg/mL
inhibition at 25 µg/mL (Klebsiella pneumoniae [11]): 96.6%
Activity (Staphylococcus aureus [12]): 62.14%
MIC (Klebsiella pneumoniae [13]): 6.25 µg/mL
MIC (Staphylococcus aureus [14]): 3.12 µg/mL
MIC (Klebsiella pneumoniae [15]): 3.12 µg/mL
selectivity ratio [16]: 8
MIC (Staphylococcus aureus [17]): 3.12 µg/mL
MIC (Staphylococcus aureus [18]): 1.56 µg/mL
MIC (Pseudomonas aeruginosa [19]): 6.25 µg/mL (≈ 9.15 µM)
inhibition (Staphylococcus aureus [20]): Dose-Dependent Effect
MIC (Pseudomonas aeruginosa [21]): 6.25 µg/mL
selectivity ratio [22]: 8
CC50 [23]: > 50 µg/mL and 73.3 µM
MIC (Klebsiella pneumoniae [24]): 3.12 µg/mL
Activity (Klebsiella pneumoniae [25]): >99.9%
viability at 6.25 ug/ml [26]: 91.2%
fold change (FC) (Staphylococcus aureus [27]): < 4
inhibition at 12.5 µg/mL (Klebsiella pneumoniae [28]): 93.9%
viability at 6.25 ug/ml [29]: 87.7%
inhibition at 0.78 µg/mL (Klebsiella pneumoniae [30]): 27.1%
MIC (Pseudomonas aeruginosa [31]): 6.25 µg/mL
CC50 [32]: > 50 µg/mL and 73.3 µM
Activity (Klebsiella pneumoniae [33]): 10.44%
log(activity) (Pseudomonas aeruginosa [34]): 5.93
MIC (Escherichia coli [35]): 3.12 µg/mL
inhibition (Klebsiella pneumoniae [36]): Dose-Dependent Effect
selectivity ratio [37]: 8
MIC (Escherichia coli [38]): 3.12 µg/mL (≈ 4.58 µM)
selectivity ratio [39]: 8
Activity (Staphylococcus aureus [40]): Active
Activity (Staphylococcus aureus [41]): 9.12%
Activity (Staphylococcus aureus [42]): Dose-Dependent Effect
